{
  "source": "paper PMC10774165",
  "about": "“Correlating sugar transporter expression and activities to identify transporters for an orphan sugar substrate” (Applied Microbiology and Biotechnology, 2024)",
  "assay_type_in_all_cases": "cell-based",
  "key": {"[1]": {"target": "T1, NCU00809 (Neurospora crassa, UniProt Q7SEC5)", "T1 construct": "full-length cDNA in p426H7, expressed in S. cerevisiae EBY.VW4000 with K. lactis LAC4", "T1 sequence (Q7SEC5 1-547)": "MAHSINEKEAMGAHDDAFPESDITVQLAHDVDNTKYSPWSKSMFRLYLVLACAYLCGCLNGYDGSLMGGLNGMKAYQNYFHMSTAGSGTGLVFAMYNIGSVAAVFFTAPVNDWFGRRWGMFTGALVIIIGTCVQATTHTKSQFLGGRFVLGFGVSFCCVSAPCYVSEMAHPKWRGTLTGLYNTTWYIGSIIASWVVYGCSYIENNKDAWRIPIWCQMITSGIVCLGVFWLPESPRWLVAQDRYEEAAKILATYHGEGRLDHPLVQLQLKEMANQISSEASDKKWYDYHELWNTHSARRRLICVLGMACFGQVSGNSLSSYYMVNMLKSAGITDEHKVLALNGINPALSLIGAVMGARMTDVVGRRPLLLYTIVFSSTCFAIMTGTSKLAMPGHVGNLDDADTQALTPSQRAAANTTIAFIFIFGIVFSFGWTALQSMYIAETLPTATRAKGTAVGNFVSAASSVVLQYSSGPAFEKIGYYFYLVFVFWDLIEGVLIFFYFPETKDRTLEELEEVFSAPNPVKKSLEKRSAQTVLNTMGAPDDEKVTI", "assay": "growth of transporter-expressing yeast on the sugar", "details": "S. cerevisiae EBY.VW4000"}, "[2]": {"target": "T2, CDT-1 (Neurospora crassa, UniProt Q7SCU1)", "T2 construct": "full-length cDNA in p426H7, expressed in S. cerevisiae EBY.VW4000 (with K. lactis LAC4 for lactose)", "T2 sequence (Q7SCU1 entry or part of it)": "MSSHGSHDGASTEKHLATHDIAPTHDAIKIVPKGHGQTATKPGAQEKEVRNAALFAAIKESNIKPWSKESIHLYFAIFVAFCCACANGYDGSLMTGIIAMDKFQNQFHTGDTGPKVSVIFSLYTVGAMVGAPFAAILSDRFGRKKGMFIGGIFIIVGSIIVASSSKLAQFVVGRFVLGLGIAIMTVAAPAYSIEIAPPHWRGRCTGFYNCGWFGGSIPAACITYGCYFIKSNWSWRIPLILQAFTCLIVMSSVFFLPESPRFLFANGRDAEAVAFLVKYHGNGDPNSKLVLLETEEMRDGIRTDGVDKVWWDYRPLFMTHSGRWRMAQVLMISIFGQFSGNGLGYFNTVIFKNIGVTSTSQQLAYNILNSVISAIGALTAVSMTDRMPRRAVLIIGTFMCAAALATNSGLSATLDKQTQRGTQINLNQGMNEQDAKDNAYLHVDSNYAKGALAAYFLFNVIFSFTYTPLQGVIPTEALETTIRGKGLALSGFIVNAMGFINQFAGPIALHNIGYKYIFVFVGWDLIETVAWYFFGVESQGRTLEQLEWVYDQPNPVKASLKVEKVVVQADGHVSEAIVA", "assay": "growth of transporter-expressing yeast on the sugar as sole carbon source", "details": "0.2% or 2% lactose, 30 °C, 3 days, coexpressed K. lactis Lac4; uptake also reduced in N. crassa deletion mutant"}, "[3]": {"target": "T1, NCU00809", "assay": "growth of transporter-expressing yeast on the sugar as sole carbon source", "details": "0.2% or 2% lactose, 30 °C, 3 days, coexpressed K. lactis Lac4; uptake also reduced in N. crassa deletion mutant"}, "[4]": {"target": "T3, CDT-2 (Neurospora crassa, UniProt Q7SD12)", "T3 construct": "full-length cDNA in p426H7, expressed in S. cerevisiae EBY.VW4000 with K. lactis LAC4", "T3 sequence (Q7SD12 entry or part of it)": "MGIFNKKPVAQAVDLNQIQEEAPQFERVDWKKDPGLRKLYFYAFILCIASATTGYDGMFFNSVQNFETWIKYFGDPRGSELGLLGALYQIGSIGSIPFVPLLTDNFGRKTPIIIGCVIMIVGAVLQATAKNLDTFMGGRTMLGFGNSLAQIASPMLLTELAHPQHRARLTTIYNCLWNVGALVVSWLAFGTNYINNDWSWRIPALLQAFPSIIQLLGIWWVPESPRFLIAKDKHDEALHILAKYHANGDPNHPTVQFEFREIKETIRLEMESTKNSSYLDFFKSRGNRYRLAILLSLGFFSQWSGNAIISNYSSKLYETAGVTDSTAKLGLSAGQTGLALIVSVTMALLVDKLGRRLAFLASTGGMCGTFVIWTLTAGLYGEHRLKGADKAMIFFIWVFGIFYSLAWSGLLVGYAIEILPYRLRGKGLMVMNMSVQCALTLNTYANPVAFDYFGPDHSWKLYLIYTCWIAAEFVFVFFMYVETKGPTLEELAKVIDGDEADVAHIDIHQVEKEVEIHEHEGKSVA", "assay": "growth of transporter-expressing yeast on the sugar as sole carbon source", "details": "0.2% or 2% lactose, 30 °C, 3 days, coexpressed K. lactis Lac4; uptake also reduced in N. crassa deletion mutant"}, "[5]": {"target": "T4, NCU08052 (Neurospora crassa, UniProt Q7SGN1)", "T4 construct": "native protein in N. crassa mycelium, wild type versus deletion mutant", "T4 sequence (Q7SGN1 entry or part of it)": "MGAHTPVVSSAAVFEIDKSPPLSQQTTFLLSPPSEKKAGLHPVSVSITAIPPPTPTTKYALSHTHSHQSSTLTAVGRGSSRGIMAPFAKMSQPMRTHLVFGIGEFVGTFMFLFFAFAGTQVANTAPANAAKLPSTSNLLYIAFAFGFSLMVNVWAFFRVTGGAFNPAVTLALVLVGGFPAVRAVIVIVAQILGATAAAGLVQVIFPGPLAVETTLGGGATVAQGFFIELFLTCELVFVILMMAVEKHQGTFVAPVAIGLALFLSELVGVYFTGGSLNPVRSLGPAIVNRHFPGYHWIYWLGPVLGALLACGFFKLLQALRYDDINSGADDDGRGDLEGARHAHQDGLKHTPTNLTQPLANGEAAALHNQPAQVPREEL", "assay": "glycerol uptake by N. crassa wild type versus deletion mutant", "details": "after induction in arabinose, 20 min"}},
  "data": [
    {"compound": "OC[C@H]1OC(O)[C@H](O)[C@@H](O)[C@H]1O", "note": "(stereo partly drawn) [D-galactose]", "values": [
      {"measurement": "growth of transporter-expressing yeast on the sugar", "setting": "[1]", "result": "NCU00809 was found to display transport activity for D-galactose"}
    ]},
    {"compound": "OC[C@H]1O[C@@H](O[C@H]2[C@H](O)[C@@H](O)C(O)O[C@@H]2CO)[C@H](O)[C@@H](O)[C@H]1O", "note": "(stereo partly drawn) [lactose, β-D-galactopyranosyl-(1 → 4)-D-glucose]", "values": [
      {"measurement": "growth of transporter-expressing yeast on the sugar as sole carbon source", "setting": "[2]", "result": "demonstrating that they are plasma membrane permeases that can transport lactose"},
      {"measurement": "growth of transporter-expressing yeast on the sugar as sole carbon source", "setting": "[3]", "result": "demonstrating that they are plasma membrane permeases that can transport lactose"},
      {"measurement": "growth of transporter-expressing yeast on the sugar as sole carbon source", "setting": "[4]", "result": "demonstrating that they are plasma membrane permeases that can transport lactose"}
    ]},
    {"compound": "OCC(O)CO", "note": "[glycerol]", "values": [
      {"measurement": "glycerol uptake by N. crassa wild type versus deletion mutant", "setting": "[5]", "result": "a significantly reduced uptake rate in the respective deletion mutant"}
    ]}
  ]
}
